{
  "source": "patent US20250230193A1",
  "about": "“CYCLIC COMPOUND HAVING SELECTIVE KRAS INHIBITORY EFFECT ON HRAS AND NRAS” (CHUGAI SEIYAKU KABUSHIKI KAISHA, priority 2022, published 2025)",
  "key": {"[1]": {"target": "GDP-bound HRAS wild-type protein (Homo sapiens, UniProt P01112)", "sequence (P01112 whole entry)": "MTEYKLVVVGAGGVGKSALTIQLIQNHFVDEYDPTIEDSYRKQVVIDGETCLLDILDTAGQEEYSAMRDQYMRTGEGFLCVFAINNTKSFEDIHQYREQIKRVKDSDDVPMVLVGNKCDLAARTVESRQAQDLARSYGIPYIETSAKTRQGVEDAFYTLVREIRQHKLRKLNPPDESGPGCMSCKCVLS", "assay": "Binding to HRAS by surface plasmon resonance (SPR), Single Cycle Kinetics"}, "[2]": {"target": "GDP-bound NRAS wild-type protein (Homo sapiens, UniProt P01111)", "sequence (P01111 whole entry)": "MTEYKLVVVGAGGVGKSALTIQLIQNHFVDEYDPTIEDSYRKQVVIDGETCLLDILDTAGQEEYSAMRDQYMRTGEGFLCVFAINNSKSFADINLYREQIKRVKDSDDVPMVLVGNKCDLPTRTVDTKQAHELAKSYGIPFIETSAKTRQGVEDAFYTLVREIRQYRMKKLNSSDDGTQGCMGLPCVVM", "assay": "Binding to NRAS by surface plasmon resonance (SPR), Single Cycle Kinetics"}, "[3]": {"details": "SPR, GDP-bound HRAS wild-type vs GDP-bound KRAS wild-type"}, "[4]": {"details": "SPR, GDP-bound NRAS wild-type vs GDP-bound KRAS wild-type"}, "[5]": {"details": "SPR, GDP-bound wild-type proteins"}},
  "note": "Where a SMILES comes first, the peptide text is derived from it. Bridges are numbered along the chain shown (N, C = ends). [ ]: non-standard residue; d: D form. The star is where a group is joined. hPhe(3-Cl-4-CF3) = N[C@@H](CCc1ccc(C(F)(F)F)c(Cl)c1)C(=O)O; NPrPhe(4-CF3) = CCCN[C@@H](Cc1ccc(C(F)(F)F)cc1)C(=O)O; NMeGly(cPent) = CN[C@H](C(=O)O)C1CCCC1; Hyp = O=C(O)[C@@H]1C[C@@H](O)CN1; NMeL = CN[C@@H](CC(C)C)C(=O)O; Morpholide = C1CN(*)CCO1; Ac5c = NC1(C(=O)O)CCCC1; Ac4c = NC1(C(=O)O)CCC1; NEtG = CCNCC(=O)O; Sar = CNCC(=O)O",
  "data": [
    {"smiles": "CC[C@H](C)[C@@H]1NC(=O)[C@H](COC)N(C)C(=O)C[C@@H](C(=O)N(C)C)N(C)C(=O)[C@H](C2CCCC2)N(C)C(=O)C2(CC(C)(C)C2)NC(=O)[C@@H]2C[C@@H](OC3CCCC3)CN2C(=O)[C@H](CCc2ccc(Cl)c(Cl)c2)NC(=O)CN(C)C(=O)[C@H](Cc2ccc(C)cc2)N2CC/C=C\\C[C@@H](C2=O)N(C)C(=O)CN(C2CC2)C1=O", "note": "[PP2628]", "values": [
      {"measurement": "HRAS/KRAS (ratio of KD value with respect to GDP-bound HRAS wild-type protein to KD value with respect to KRAS)", "setting": "[1]; class symbols", "value": "A (a compound having 10 or more and less than 20 is denoted as A)"},
      {"measurement": "NRAS/KRAS (ratio of KD value with respect to GDP-bound NRAS wild-type protein to KD value with respect to KRAS)", "setting": "[2]; class symbols", "value": "A (a compound having 10 or more and less than 20 is denoted as A)"}
    ]},
    {"smiles": "CCCN1C(=O)CN(C)C(=O)CN(CC)C(=O)[C@H]([C@@H](C)CC)NC(=O)[C@H](CC(C)C)N(C)C(=O)C[C@@H](C(=O)N2CCOCC2)NC(=O)[C@H](C2CCCC2)N(C)C(=O)C2(CCC2)NC(=O)[C@@H]2C[C@@H](OCC)CN2C(=O)[C@H](CCc2ccc(C(F)(F)F)c(Cl)c2)NC(=O)CN(C)C(=O)[C@@H]1Cc1ccc(C(F)(F)F)cc1", "note": "[PP0336] ([NMeL]I[NEtG][Sar][NPrPhe(4-CF3)][Sar][hPhe(3-Cl-4-CF3)][Hyp](Et)[Ac4c][NMeGly(cPent)]D-Morpholide; lactam N-11)", "values": [
      {"measurement": "HRAS/KRAS (ratio of KD for GDP-bound HRAS wild-type to KD for KRAS)", "setting": "[1]; SPR", "value": "B (a compound having 3 or more and less than 10 is denoted as B)"},
      {"measurement": "NRAS/KRAS (ratio of KD for GDP-bound NRAS wild-type to KD for KRAS)", "setting": "[2]; SPR", "value": "B (a compound having 3 or more and less than 10 is denoted as B)"}
    ]},
    {"smiles": "CC[C@@H]1C[C@H]2C(=O)NC3(CCCC3)C(=O)N(C)[C@@H](C3CCCC3)C(=O)N(C)[C@H](C(=O)N(C)C)CC(=O)N(C)[C@@H](CC(C)C)C(=O)N[C@@H]([C@@H](C)CC)C(=O)N(C)CC(=O)N(C)[C@H]3C/C=C\\CCN(C3=O)[C@@H](Cc3ccc(C)cc3)C(=O)N(C)CC(=O)N[C@@H](CCc3cc(F)c(C(F)(F)F)c(F)c3)C(=O)N2C1", "note": "[PP2191]", "values": [
      {"measurement": "HRAS/KRAS (ratio of KD value with respect to HRAS to KD value with respect to KRAS)", "setting": "[1]; [3]", "value": "B (a compound having 3 or more and less than 10 is denoted as B)"},
      {"measurement": "NRAS/KRAS (ratio of KD value with respect to NRAS to KD value with respect to KRAS)", "setting": "[2]; [4]", "value": "A (a compound having 10 or more and less than 20 is denoted as A)"}
    ]},
    {"smiles": "CCC[C@H]1C(=O)N[C@@H]([C@@H](C)CC)C(=O)N(C2CC2)CC(=O)N(C)[C@H]2C/C=C\\CCN(C2=O)[C@@H](Cc2ccc(C(F)(F)F)cc2)C(=O)N(C)CC(=O)N[C@@H](CCc2cc(F)c(C(F)(F)F)c(F)c2)C(=O)N2C[C@H](OCC)C[C@H]2C(=O)N(C)C2(CCC2)C(=O)N(C)[C@@H](C2CCCC2)C(=O)N(C)[C@H](C(=O)N2CCCCC2)CC(=O)N1C", "note": "[PP3110]", "values": [
      {"measurement": "HRAS/KRAS (ratio of KD value with respect to GDP-bound HRAS wild-type protein to KD value with respect to KRAS)", "setting": "[1]; [5]", "value": "A (a compound having 10 or more and less than 20 is denoted as A)"},
      {"measurement": "NRAS/KRAS (ratio of KD value with respect to GDP-bound NRAS wild-type protein to KD value with respect to KRAS)", "setting": "[2]; [5]", "value": "A (a compound having 10 or more and less than 20 is denoted as A)"}
    ]},
    {"smiles": "CCCN1C(=O)CN(C)C(=O)CN(C)C(=O)[C@H]([C@@H](C)CC)NC(=O)[C@H](CC(C)C)N(C)C(=O)C[C@@H](C(=O)N(C)C)NC(=O)[C@H](C2CCCC2)N(C)C(=O)C2(CCCC2)NC(=O)[C@@H]2CCCN2C(=O)[C@H](CCc2ccc(C(F)(F)F)c(Cl)c2)NC(=O)CN(C)C(=O)[C@@H]1Cc1ccc(C(F)(F)F)cc1", "note": "[PP0355] ([NMeL]I[Sar][Sar][NPrPhe(4-CF3)][Sar][hPhe(3-Cl-4-CF3)]P[Ac5c][NMeGly(cPent)]D-NMe2; lactam N-11)", "values": [
      {"measurement": "HRAS/KRAS (ratio of KD for GDP-bound HRAS wild-type to KD for KRAS)", "setting": "[1]; SPR", "value": "B (a compound having 3 or more and less than 10 is denoted as B)"},
      {"measurement": "NRAS/KRAS (ratio of KD for GDP-bound NRAS wild-type to KD for KRAS)", "setting": "[2]; SPR", "value": "B (a compound having 3 or more and less than 10 is denoted as B)"}
    ]},
    {"smiles": "CCO[C@@H]1C[C@H]2C(=O)NC3(CC(C)(C)C3)C(=O)N(C)[C@@H](C3CCCC3)C(=O)N(C)[C@H](CC)CC(=O)N(C)[C@@H](CC)C(=O)N[C@@H]([C@@H](C)CC)C(=O)N(C)CC(=O)N(C)[C@H]3C/C=C\\CCN(C3=O)[C@@H](Cc3ccc(C(F)(F)F)cc3)C(=O)N(C)CC(=O)N[C@@H](CCc3cc(F)c(C(F)(F)F)c(F)c3)C(=O)N2C1", "note": "[PP1623]", "values": [
      {"measurement": "HRAS/KRAS (ratio of KD value for HRAS to KD value for KRAS)", "setting": "[1]; KD ratio, GDP-bound HRAS wild-type vs GDP-bound KRAS wild-type, SPR", "value": "A (a compound having 10 or more and less than 20 is denoted as A)"},
      {"measurement": "NRAS/KRAS (ratio of KD value for NRAS to KD value for KRAS)", "setting": "[2]; KD ratio, GDP-bound NRAS wild-type vs GDP-bound KRAS wild-type, SPR", "value": "A (a compound having 10 or more and less than 20 is denoted as A)"}
    ]},
    {"smiles": "CCCOC[C@H]1C(=O)N[C@@H]([C@@H](C)CC)C(=O)N2CCC[C@H]2C(=O)N(C)[C@H]2C/C=C\\CCN(C2=O)[C@@H](CC2CCC(F)(F)CC2)C(=O)N(C)CC(=O)N[C@@H](CCc2ccc(C(F)(F)F)c(OC)c2)C(=O)N2C[C@@H](C)C[C@H]2C(=O)N(C)C2(CCC2)C(=O)N(C)[C@@H](C2CCCC2)C(=O)N(C)[C@H](C(=O)N(C)C)CC(=O)N1C", "note": "[PP2381]", "values": [
      {"measurement": "HRAS/KRAS (ratio of KD value with respect to HRAS to KD value with respect to KRAS)", "setting": "[1]; [3]", "value": "A (a compound having 10 or more and less than 20 is denoted as A)"},
      {"measurement": "NRAS/KRAS (ratio of KD value with respect to NRAS to KD value with respect to KRAS)", "setting": "[2]; [4]", "value": "A (a compound having 10 or more and less than 20 is denoted as A)"}
    ]}
  ]
}
